Activity calls are given as the source filed them. The rule behind the calls is not given here.
Assays:
HCT-116 [1] = experiment: cells; conditions: Homo sapiens, HCT-116, 72 h
Description: Antiproliferative activity against human HCT-116 cells assessed as inhibition of cell proliferation incubated for 72 hrs by MTT assay

[2] = molecular target: DNA (cytosine-5)-methyltransferase 3A (Homo sapiens) (UniProt Q9Y6K1); experiment: Inhibition of DNMT3A in human HCT-116 cells assessed as downregulation of DNMT3A protein level at 1 uM incubated for 72 hrs by Western blot analysis; assay type: cell-based
[3] = molecular target: DNA (cytosine-5)-methyltransferase 3A (Homo sapiens) (UniProt Q9Y6K1); experiment: Inhibition of DNMT3A in human HCT-116 cells assessed as increase in p53 protein level at 1 uM incubated for 72 hrs by Western blot analysis; assay type: cell-based
U-937 [4] = experiment: cells; conditions: Homo sapiens, U-937, 72 h
Description: Antiproliferative activity against human U-937 cells assessed as inhibition of cell proliferation incubated for 72 hrs by MTT assay

THP-1 [5] = experiment: Antiproliferative activity against human THP-1 cells assessed as inhibition of cell proliferation incubated for 72 hrs by MTT assay; assay type: functional, cell-based; conditions: THP-1, 72 h
[6] = Cytotoxicity activity against human PBMC cells assessed as inhibition of cell proliferation incubated for 72 hrs by MTT assay; assay type: toxicity, cell-based
DU-145 [7] = experiment: Antiproliferative activity against human DU-145 cells assessed as inhibition of cell proliferation incubated for 72 hrs by MTT assay; assay type: functional, cell-based; conditions: DU-145, 72 h
K562 [8] = experiment: Antiproliferative activity against human K562 cells assessed as inhibition of cell proliferation incubated for 72 hrs by MTT assay; assay type: functional, cell-based; conditions: K562, 72 h
A549 [9] = experiment: cells; conditions: Homo sapiens, A549, 72 h
Description: Antiproliferative activity against human A549 cells assessed as inhibition of cell proliferation incubated for 72 hrs by MTT assay

A549 [10] = experiment: Antiproliferative activity against human A549 cells assessed as inhibition of cell proliferation at 100 uM incubated for 24 to 72 hrs by MTT assay; assay type: functional, cell-based; conditions: time 24-72 hrs, TDE = time-dependent effect
A549 [11] = experiment: Antiproliferative activity against human A549 cells assessed as inhibition of cell proliferation at 0.1 to 100 uM incubated upto 72 hrs by MTT assay; assay type: functional, cell-based; conditions: dose 0.1-100 µM
HCT-116 [12] = experiment: Antiproliferative activity against human HCT-116 cells assessed as inhibition of cell proliferation at 0.1 to 100 uM incubated upto 72 hrs by MTT assay; assay type: functional, cell-based; conditions: dose 0.1-100 µM
K562 [13] = experiment: Antiproliferative activity against human K562 cells assessed as inhibition of cell proliferation at 0.1 to 100 uM incubated upto 72 hrs by MTT assay; assay type: functional, cell-based; conditions: dose 0.1-100 µM
[14] = molecular target: T1, Histone-lysine N-methyltransferase EHMT2 (Homo sapiens, UniProt Q96KQ7); experiment: Inhibition of N-terminal GST-tagged human G9a expressed in baculovirus infected Sf9 cells using biotinylated histone H3 peptide as substrate preincubated for 15 mins followed by substrate addition in presence of SAM and measured after 60 mins by AlphaLISA assay
T1 sequence (Q96KQ7 whole entry): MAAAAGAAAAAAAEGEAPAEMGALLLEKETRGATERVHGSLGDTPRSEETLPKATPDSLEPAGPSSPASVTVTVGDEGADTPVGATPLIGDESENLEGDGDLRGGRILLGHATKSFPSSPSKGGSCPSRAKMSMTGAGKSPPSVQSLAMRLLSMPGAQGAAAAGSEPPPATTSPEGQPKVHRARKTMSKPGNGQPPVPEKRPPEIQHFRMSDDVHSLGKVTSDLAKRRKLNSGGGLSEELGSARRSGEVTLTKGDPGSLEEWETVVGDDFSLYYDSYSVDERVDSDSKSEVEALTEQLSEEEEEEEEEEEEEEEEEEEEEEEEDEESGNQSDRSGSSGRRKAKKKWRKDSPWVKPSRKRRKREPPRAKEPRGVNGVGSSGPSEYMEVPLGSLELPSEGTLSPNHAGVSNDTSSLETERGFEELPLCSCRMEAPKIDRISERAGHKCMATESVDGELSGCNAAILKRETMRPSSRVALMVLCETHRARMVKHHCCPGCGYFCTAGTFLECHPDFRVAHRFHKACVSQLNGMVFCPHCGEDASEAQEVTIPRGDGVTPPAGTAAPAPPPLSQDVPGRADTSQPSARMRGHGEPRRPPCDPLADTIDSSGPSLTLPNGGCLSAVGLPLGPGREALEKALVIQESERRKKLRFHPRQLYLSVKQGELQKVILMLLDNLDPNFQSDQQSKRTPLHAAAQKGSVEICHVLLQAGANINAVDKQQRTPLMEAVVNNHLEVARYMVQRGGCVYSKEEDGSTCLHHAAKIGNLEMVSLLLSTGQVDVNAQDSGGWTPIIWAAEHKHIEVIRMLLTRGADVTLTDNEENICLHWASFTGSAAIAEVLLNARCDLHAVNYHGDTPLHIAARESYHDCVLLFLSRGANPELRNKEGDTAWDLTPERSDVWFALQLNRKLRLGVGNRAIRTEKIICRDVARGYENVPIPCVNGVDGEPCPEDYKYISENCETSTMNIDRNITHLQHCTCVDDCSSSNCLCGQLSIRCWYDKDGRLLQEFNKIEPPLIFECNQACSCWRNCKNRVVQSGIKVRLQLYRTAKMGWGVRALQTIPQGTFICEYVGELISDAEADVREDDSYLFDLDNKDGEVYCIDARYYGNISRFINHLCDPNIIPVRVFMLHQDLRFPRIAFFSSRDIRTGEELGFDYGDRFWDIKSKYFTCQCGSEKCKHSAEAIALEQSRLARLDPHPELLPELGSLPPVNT

DNMT3B = DNMT3B (Homo sapiens, UniProt Q9UBC3); experiment: Inhibition of N-terminal His-tagged human DNMT3B (564 to 853 residues)/N-terminal GST-tagged human DNMT3L (160 to 387 residues) co-expressed in baculovirus infected Sf9 cells assessed as DNA methylation using DNA oligonucleotide IDT-01 as substrate preincubated for 15 mins followed by substrate addition in presence of [3H]-SAM and measured after 4 hrs by radioactive methylation assay
DU-145 [15] = experiment: Antiproliferative activity against human DU-145 cells assessed as inhibition of cell proliferation at 0.1 to 100 uM incubated upto 72 hrs by MTT assay; assay type: functional, cell-based; conditions: dose 0.1-100 µM
HCT-116 [16] = experiment: Antiproliferative activity against human HCT-116 cells assessed as inhibition of cell proliferation at 100 uM incubated for 24 to 72 hrs by MTT assay; assay type: functional, cell-based; conditions: time 24-72 hrs, TDE = time-dependent effect
U-937 [17] = experiment: Antiproliferative activity against human U-937 cells assessed as inhibition of cell proliferation at 0.1 to 100 uM incubated upto 72 hrs by MTT assay; assay type: functional, cell-based; conditions: dose 0.1-100 µM
U-937 [18] = experiment: Antiproliferative activity against human U-937 cells assessed as inhibition of cell proliferation at 100 uM incubated for 24 to 72 hrs by MTT assay; assay type: functional, cell-based; conditions: time 24-72 hrs, TDE = time-dependent effect
K562 [19] = experiment: Antiproliferative activity against human K562 cells assessed as inhibition of cell proliferation at 100 uM incubated for 24 to 72 hrs by MTT assay; assay type: functional, cell-based; conditions: time 24-72 hrs, TDE = time-dependent effect
[20] = molecular target: DNA (cytosine-5)-methyltransferase 1 (Homo sapiens, UniProt P26358); experiment: Inhibition of N-terminal GST-tagged full-length recombinant human DNMT1 assessed as DNA methylation using pdI-pdC DNA as substrate preincubated for 15 mins followed by substrate addition in presence of [3H]-SAM and measured after 150 mins by radioactive methylation assay
DNA (cytosine-5)-methyltransferase 1, sequence (P26358 whole entry, the tested form may be a part): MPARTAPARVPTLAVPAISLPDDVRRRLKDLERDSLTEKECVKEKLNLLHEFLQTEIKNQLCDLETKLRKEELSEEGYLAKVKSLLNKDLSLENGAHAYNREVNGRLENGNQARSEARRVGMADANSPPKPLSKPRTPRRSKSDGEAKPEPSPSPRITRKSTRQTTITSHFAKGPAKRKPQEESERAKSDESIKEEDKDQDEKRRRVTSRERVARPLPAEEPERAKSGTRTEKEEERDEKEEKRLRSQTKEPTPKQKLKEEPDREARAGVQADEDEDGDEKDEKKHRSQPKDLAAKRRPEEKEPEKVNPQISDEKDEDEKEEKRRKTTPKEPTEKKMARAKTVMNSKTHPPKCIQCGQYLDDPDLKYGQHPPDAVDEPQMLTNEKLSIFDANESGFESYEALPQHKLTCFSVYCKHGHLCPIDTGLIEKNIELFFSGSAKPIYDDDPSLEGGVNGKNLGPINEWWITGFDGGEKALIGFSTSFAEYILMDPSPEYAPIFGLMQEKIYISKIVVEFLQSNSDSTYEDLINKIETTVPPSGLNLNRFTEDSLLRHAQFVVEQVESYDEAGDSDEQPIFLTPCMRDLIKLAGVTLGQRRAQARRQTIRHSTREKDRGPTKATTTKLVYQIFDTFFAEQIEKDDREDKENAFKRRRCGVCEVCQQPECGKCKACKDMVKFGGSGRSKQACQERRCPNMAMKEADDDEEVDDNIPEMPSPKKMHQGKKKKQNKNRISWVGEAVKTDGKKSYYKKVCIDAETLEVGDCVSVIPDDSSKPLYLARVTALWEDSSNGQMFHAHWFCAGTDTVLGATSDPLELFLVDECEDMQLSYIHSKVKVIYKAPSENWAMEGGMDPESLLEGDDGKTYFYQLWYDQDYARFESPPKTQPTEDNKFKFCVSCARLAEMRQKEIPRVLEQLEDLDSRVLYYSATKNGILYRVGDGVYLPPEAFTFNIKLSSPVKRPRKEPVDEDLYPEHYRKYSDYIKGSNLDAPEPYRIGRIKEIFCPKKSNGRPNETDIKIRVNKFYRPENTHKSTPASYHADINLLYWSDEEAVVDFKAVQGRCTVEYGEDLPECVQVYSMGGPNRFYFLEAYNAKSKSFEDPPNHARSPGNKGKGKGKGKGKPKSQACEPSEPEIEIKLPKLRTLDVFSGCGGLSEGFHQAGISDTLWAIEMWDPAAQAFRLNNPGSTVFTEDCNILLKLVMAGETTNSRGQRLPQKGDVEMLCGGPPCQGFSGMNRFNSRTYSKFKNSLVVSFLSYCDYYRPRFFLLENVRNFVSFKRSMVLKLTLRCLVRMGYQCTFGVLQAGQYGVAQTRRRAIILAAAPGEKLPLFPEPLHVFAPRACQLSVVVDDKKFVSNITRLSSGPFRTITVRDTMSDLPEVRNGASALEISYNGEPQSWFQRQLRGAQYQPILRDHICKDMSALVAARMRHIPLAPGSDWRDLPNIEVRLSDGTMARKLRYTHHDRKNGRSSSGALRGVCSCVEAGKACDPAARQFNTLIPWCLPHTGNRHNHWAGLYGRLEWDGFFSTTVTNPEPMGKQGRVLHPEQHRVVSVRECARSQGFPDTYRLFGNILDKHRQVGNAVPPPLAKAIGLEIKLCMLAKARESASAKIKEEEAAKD

[21] = molecular target: T2, DNMT3A2/3L complex (Homo sapiens) (UniProt Q9Y6K1+Q9UJW3); experiment: (§1) Inhibition of N-terminal His-tagged human DNMT3A (623 to 912 residues)/N-terminal GST-tagged human DNMT3L (160 to 387 residues) co-expressed in baculovirus infected Sf9 cells assessed as DNA methylation using DNA oligonucleotide IDT-01 as substrate at 100 uM preincubated for 15 mins followed by substrate addition in presence of [3H]-SAM and measured after 4 hrs by radioactive methylation assay; conditions: time 255.0 min
T2 sequence (Q9UJW3 whole entry, looked up, the tested form may be a part): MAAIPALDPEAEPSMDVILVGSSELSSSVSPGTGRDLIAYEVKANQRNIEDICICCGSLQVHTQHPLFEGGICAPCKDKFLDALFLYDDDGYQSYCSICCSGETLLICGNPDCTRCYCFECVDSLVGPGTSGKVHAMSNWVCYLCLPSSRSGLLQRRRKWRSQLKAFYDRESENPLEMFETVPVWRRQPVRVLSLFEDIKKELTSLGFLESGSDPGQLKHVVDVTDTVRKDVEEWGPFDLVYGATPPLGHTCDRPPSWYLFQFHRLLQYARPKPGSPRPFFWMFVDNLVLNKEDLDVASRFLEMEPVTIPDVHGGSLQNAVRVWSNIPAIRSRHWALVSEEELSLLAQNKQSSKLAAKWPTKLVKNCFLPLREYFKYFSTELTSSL
T2 sequence (Q9Y6K1 whole entry, looked up, the tested form may be a part): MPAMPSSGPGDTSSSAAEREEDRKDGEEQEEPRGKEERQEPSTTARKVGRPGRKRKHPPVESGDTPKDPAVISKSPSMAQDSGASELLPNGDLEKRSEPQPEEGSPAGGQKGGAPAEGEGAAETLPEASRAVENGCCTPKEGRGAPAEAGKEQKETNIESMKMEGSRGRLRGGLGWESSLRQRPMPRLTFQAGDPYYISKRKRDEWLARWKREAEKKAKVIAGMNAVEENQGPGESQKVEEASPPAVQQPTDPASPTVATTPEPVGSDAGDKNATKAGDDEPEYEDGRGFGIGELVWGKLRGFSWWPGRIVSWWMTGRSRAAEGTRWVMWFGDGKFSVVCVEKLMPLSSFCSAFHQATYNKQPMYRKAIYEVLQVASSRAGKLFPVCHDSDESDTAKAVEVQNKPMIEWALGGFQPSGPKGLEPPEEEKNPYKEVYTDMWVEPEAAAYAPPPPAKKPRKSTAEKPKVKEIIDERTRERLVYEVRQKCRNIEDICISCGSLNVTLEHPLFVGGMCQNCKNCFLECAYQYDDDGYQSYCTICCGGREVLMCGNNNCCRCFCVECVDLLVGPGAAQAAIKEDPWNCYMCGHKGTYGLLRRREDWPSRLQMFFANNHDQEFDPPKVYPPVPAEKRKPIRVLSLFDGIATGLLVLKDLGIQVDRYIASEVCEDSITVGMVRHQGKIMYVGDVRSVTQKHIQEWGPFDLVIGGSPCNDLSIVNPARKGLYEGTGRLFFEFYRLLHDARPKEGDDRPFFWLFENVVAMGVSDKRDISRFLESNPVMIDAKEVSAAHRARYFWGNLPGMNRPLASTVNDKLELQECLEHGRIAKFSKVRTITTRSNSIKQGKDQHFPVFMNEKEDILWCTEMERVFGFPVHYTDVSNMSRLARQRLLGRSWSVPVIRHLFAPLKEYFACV

THP-1 [22] = experiment: Antiproliferative activity against human THP-1 cells assessed as inhibition of cell proliferation at 100 uM incubated for 24 to 72 hrs by MTT assay; assay type: functional, cell-based; conditions: time 24-72 hrs, TDE = time-dependent effect
[23] = molecular target: T2, DNMT3A2/3L complex (Homo sapiens); experiment: as §1, with “10” for “100”; conditions: time 255.0 min
THP-1 [24] = experiment: Antiproliferative activity against human THP-1 cells assessed as inhibition of cell proliferation at 0.1 to 100 uM incubated upto 72 hrs by MTT assay; assay type: functional, cell-based; conditions: dose 0.1-100 µM
DU-145 [25] = experiment: Antiproliferative activity against human DU-145 cells assessed as inhibition of cell proliferation at 100 uM incubated for 24 to 72 hrs by MTT assay; assay type: functional, cell-based; conditions: time 24-72 hrs, TDE = time-dependent effect
DNMT3A2/3L complex = DNMT3A2/3L complex (Homo sapiens, UniProt Q9Y6K1); experiment: as §1, with “substrate” for “substrate at 100 uM”
DNMT3A2/3L complex, sequence (Q9Y6K1 whole entry, looked up, one chain of several): as the sequence (Q9Y6K1 whole entry, looked up, the tested form may be a part) above

DNA (cytosine-5)-methyltransferase 3A (Homo sapiens), sequence (Q9Y6K1 whole entry, looked up): as the sequence (Q9Y6K1 whole entry, looked up, the tested form may be a part) above

| IC50 (HCT-116 [1]) [µM] | IC50 (U-937 [4]) [µM] | IC50 (THP-1 [5]) [µM] | IC50 (DU-145 [7]) [µM] | IC50 (K562 [8]) [µM] | IC50 (A549 [9]) [µM] | IC50 [14] [µM] | IC50 (DNMT3B) [µM] | inhibition [21] [%] | inhibition [23] [%] | IC50 (DNMT3A2/3L complex) [µM] | Compound | IC50 at 72 h [6] [µM] | Activity (A549 [10]) | Activity (A549 [11]) | Activity (HCT-116 [12]) | Activity (K562 [13]) | Activity (DU-145 [15]) | Activity (HCT-116 [16]) | Activity (U-937 [17]) | Activity (U-937 [18]) | further results |
| --- | --- | --- | --- | --- | --- | --- | --- | --- | --- | --- | --- | --- | --- | --- | --- | --- | --- | --- | --- | --- | --- |
| 0.9 | 0.7 | 0.7 | 3.4 | 0.6 | 8.9 | – | – | – | – | – | Cc1cc(Nc2ccc(NC(=O)c3ccc(Nc4ccnc5ccccc45)cc3)cc2)nc(N)n1 | 2 | – | – | – | – | – | – | – | – | inhibition [2]: inactive; p53 protein level increase (active/not active) [3]: inactive |
| 0.5 | 1.8 | 2.2 | 5.3 | 6.1 | 11.1 | > 500 | > 100 | 77.7 | 70.5 | – | Cc1oc2ncn(CCN3CCCCC3)c(=O)c2c1C(=O)Nc1ccc(S(N)(=O)=O)nc1 | 137 | Tde | Dose-Dependent Effect | Dose-Dependent Effect | Dose-Dependent Effect | Dose-Dependent Effect | Tde | Dose-Dependent Effect | Tde | p53 protein level increase (active/not active) [3]: Active; Activity (K562 [19]): Tde; IC50 [20]: 51.2 µM; Activity (THP-1 [22]): Tde; Activity (THP-1 [24]): Dose-Dependent Effect; Activity (DU-145 [25]): Tde |
| – | – | – | – | – | – | – | – | 48 | 11.3 | > 100 | Cc1oc2ncn(Cc3cccnc3)c(=O)c2c1C(=O)Nc1ccc(S(N)(=O)=O)nc1 | – | – | – | – | – | – | – | – | – | – |
| – | – | – | – | – | – | – | – | 40.4 | 8.3 | > 100 | Cc1sc2ncn(CCN3CCOCC3)c(=O)c2c1C(=O)Nc1ccc(S(N)(=O)=O)nc1 | – | – | – | – | – | – | – | – | – | – |
| 1.6 | 3.5 | 4.2 | 4.1 | 5.4 | 8.5 | 14.9 | 64.7 | 89.8 | 66 | 1.3 | Cc1oc2ncn(CCCN3CCCCC3)c(=O)c2c1C(=O)Nc1ccc(S(N)(=O)=O)nc1 | 144 | Tde | Dose-Dependent Effect | Dose-Dependent Effect | Dose-Dependent Effect | Dose-Dependent Effect | Tde | Dose-Dependent Effect | Tde | Activity (K562 [19]): Tde; IC50 [20]: 15.9 µM; Activity (THP-1 [22]): Tde; Activity (THP-1 [24]): Dose-Dependent Effect; Activity (DU-145 [25]): Tde |
| 2.1 | 4.2 | 3.3 | 2.8 | 6.5 | 15.7 | 308 | 120 | 94.1 | 69.6 | 1.8 | Cc1oc2ncn(CCCN3CCCC3)c(=O)c2c1C(=O)Nc1ccc(S(N)(=O)=O)nc1 | 161 | Tde | Dose-Dependent Effect | Dose-Dependent Effect | Dose-Dependent Effect | Dose-Dependent Effect | Tde | Dose-Dependent Effect | Tde | Activity (K562 [19]): Tde; IC50 [20]: 9.6 µM; Activity (THP-1 [22]): Tde; Activity (THP-1 [24]): Dose-Dependent Effect; Activity (DU-145 [25]): Tde |

Reference: ChEMBL document CHEMBL5352402, “Discovery of novel non-nucleoside inhibitors with high potency and selectivity for DNA methyltransferase 3A” (Eur J Med Chem, 2022)
